Experimental data reported in paper PMC10458596, “Synthesis, In Silico Logp Study, and In Vitro Analgesic Activity of Analogs of Tetrapeptide FELL” (Pharmaceuticals, 2023).
Residues, ends and D or L forms follow the SMILES beside them.

Experiments:
[1] = system: white blood cells (WBC), especially neutrophils and macrophages, in bronchoalveolar fluid (BALF); parameters: method as in PMID 25632019; details: cited from earlier work
male Wistar rats [2] = assay: Paw-pressure test (Randall-Selitto test), PPT; assay type: in vivo, rat; details: for Analgesic activity (PPT) over time: 0.25 mg/kg i.p. in saline, measured every 10 min from 10th to 50th min, n = 8-10 per group, PPT in AU, mean ± S.E.M. (Figure 2)
Description: (§1) The experiments were carried out on male Wistar rats (180–200 g) kept under normal conditions at ambient room temperature (22 °C). The animals were divided into five experimental groups, each including 8–10 animals, and a control group (n = 10). All experimental procedures were carried out between 10:00 a.m. and 1:00 p.m. after having been approved by the Research Ethics Commission of the Medical University—Sofia.
(§2) The control group received 0.2 mL of saline intraperitoneally injected (i.p.), while the animals from each one of the experimental groups received 0.2 mL (0.25 mg/kg, i.p.) of one of the five newly synthesized analogs dissolved in saline.
(§3) Changes in the mechanical nociceptive thresholds (PPT) of experimental animals were measured by an analgesimeter. Pressure was applied to the hind paw, and the value (g) required to elicit a nociceptive response (i.e., a squeak or struggle) was taken as the mechanical nociceptive threshold. A cut-off value of 500 g was used to prevent damage to the paw.
(§4) Nociception was evaluated every 10 min from the 10th minute after the newly synthesized analog was administered until the 50th minute.
The results were statistically assessed by one-way analysis of variance followed by a Newman-Keuls post-hoc comparison test. Values are represented as mean ± S.E.M. Values of p < 0.05 were considered to indicate statistical significance.

male Wistar rats [3] = assay: Paw-pressure test after Naloxone or AM251 pretreatment; assay type: in vivo, rat; details: 10th to 50th min (Figure 3); for Analgesia (PPT) after AM251 pretreatment: peptide i.p. after AM251 (CB1R antagonist) pretreatment; for Analgesia (PPT) after Naloxone pretreatment: peptide i.p. after Naloxone (MOR antagonist) pretreatment
Description: as §1, §2, §3, §4
In order to estimate which type of receptor participates in the analgesic effects of the newly synthesized substances, pretreatments have been made with Naloxone—an antagonist with a high binding affinity for the MORs, clinically used to prevent fatal overdose consequences—and AM251—a CB1Rs’ antagonist.

Molecule | Reduction of total number of white blood cells and their accumulation in BALF in the lungs [1] [%] | Analgesic activity (PPT) over time (male Wistar rats [2]) | also measured
TDIFELLK | 57 |  | 
TDIFELL | 54 |  | 
CC(C)[C@H](NC(=O)[C@@H](NC(=O)[C@H](CCC(=O)O)NC(=O)[C@@H](N)Cc1ccccc1)C(C)C)C(N)=O [BB3, H-Phe-Glu-Val-Val-NH2] (H-FEVV-NH2) |  | highest but short-lasting analgesic activity | Analgesic activity (PPT) vs BB11 at the 10th minute (male Wistar rats [2]; 0.25 mg/kg i.p., 10th min, F = 92.35602, p < 0.00001): exceeded that of BB11
H-Phe-Glu-Ile-Ile-NH2 [BB4, FELL analog with Ile at positions 3 and 4, C-terminal amide] |  | fluctuating analgesia that did not reach the values of the parent compound | 
CC(C)C[C@H](NC(=O)[C@H](CC(C)C)NC(=O)[C@H](CCC(=O)O)NC(=O)[C@@H](N)Cc1ccccc1)C(N)=O [BB1, H-Phe-Glu-Leu-Leu-NH2] (H-FELL-NH2) |  | gradually increasing analgesic activity over time | Analgesia (PPT) after AM251 pretreatment (male Wistar rats [3]): completely abolished the analgesia; Analgesia (PPT) after Naloxone pretreatment (male Wistar rats [3]): completely abolished the analgesia; Analgesic activity (PPT) vs parent compound BB11 at the end of the reported period (male Wistar rats [2]; 0.25 mg/kg i.p., 50th min, F = 5.38217, p = 0.042776): exceeded that of the parent compound BB11
CC(C)C[C@H](NC(=O)[C@H](CC(C)C)NC(=O)[C@H](CCC(=O)O)NC(=O)[C@@H](N)Cc1ccccc1)C(=O)O [BB11, H-Phe-Glu-Leu-Leu-OH, reference compound] (H-FELL-OH) | 51 | constantly increased PPT for the total time of the evaluation | Analgesia (PPT) after AM251 pretreatment (male Wistar rats [3]): completely abolished the analgesia; Analgesia (PPT) after Naloxone pretreatment (male Wistar rats [3]): completely abolished the analgesia
CCCC[C@H](NC(=O)[C@H](CCCC)NC(=O)[C@H](CCC(=O)O)NC(=O)[C@@H](N)Cc1ccccc1)C(N)=O [BB2, H-Phe-Glu-Nle-Nle-NH2] (HELM PEPTIDE1{F.E.[Nle].[Nle].[am]}$$$$V2.0) |  | fluctuating analgesia that did not reach the values of the parent compound | 
